Source: ChEMBL document CHEMBL1201862, “PubChem BioAssay data set” (2004)
Activity calls are given as the source filed them.

Columns and labels:
[1] = target: T1, Tyrosyl-DNA phosphodiesterase 2 (Homo sapiens, UniProt O95551); test: human TDP2 enzyme inhibitors, dose response, biochemical, epi absorbance, IC50 (AID 743297)
T1 sequence (O95551 whole entry): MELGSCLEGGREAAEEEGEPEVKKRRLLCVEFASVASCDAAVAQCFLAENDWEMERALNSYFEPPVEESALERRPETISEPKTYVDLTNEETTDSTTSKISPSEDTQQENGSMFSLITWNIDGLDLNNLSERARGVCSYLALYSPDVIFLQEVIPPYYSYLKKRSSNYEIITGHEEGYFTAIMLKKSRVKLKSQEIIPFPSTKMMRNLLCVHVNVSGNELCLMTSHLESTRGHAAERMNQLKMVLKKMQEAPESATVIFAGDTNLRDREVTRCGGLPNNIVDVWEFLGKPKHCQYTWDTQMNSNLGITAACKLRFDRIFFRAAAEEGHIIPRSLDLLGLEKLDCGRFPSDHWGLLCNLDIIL

[2] = target: T2, Apoptotic protease-activating factor 1 (Homo sapiens, UniProt O14727); type: functional
T2 sequence (O14727 whole entry): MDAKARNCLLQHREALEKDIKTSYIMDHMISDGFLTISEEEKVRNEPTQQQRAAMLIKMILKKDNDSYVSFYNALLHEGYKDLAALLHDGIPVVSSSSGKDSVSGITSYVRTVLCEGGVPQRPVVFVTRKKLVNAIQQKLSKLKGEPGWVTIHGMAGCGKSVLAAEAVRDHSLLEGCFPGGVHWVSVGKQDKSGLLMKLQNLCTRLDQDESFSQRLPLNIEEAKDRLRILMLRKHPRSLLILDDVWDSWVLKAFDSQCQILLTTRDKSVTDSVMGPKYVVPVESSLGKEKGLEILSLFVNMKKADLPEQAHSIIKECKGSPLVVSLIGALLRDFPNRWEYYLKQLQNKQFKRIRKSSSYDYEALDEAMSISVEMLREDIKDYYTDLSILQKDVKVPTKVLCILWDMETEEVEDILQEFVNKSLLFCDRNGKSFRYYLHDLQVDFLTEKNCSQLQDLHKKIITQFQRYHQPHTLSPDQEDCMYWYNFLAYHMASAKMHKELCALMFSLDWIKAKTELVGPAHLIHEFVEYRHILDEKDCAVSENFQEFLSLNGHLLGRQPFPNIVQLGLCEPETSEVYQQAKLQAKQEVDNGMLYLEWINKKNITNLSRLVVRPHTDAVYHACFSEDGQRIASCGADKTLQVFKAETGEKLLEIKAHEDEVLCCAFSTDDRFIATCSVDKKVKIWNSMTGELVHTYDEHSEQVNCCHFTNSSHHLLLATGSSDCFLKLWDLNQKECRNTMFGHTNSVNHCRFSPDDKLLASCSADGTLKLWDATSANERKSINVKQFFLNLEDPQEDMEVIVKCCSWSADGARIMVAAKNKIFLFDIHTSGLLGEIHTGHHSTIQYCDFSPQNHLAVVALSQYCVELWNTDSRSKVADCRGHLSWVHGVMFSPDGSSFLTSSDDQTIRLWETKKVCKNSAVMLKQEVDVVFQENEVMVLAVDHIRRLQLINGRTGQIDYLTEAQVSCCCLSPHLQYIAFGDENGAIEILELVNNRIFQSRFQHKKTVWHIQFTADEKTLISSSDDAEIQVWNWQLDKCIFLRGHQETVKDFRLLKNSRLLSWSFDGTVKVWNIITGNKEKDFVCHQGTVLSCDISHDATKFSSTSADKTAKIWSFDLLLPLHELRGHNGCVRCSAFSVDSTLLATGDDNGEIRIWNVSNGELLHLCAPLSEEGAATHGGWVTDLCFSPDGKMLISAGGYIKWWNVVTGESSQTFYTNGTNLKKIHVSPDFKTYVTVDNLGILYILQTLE

Caspase-6 = target: T3, Caspase-6 (Homo sapiens, UniProt P55212); test: human caspase-6 inhibitors, dose response, biochemical, VEID-R110 fluorescence, cherry-pick (AID 720632)
T3 sequence (P55212 whole entry): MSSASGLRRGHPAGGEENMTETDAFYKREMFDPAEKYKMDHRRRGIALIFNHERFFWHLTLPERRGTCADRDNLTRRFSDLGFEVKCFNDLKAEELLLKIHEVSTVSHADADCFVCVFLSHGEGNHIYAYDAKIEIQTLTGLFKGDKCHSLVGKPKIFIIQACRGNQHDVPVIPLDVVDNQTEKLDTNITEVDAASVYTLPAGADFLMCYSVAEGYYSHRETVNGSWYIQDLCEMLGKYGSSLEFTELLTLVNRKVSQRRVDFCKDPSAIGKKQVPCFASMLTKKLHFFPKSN

[3] = target: T4, Replicative DNA helicase DnaB (Mycobacterium tuberculosis, UniProt P9WMR3); test: DnaB intein splicing inhibitors, dose response, biochemical, cell-free fluorescence (AID 449749); type: functional
T4 sequence (P9WMR3 whole entry): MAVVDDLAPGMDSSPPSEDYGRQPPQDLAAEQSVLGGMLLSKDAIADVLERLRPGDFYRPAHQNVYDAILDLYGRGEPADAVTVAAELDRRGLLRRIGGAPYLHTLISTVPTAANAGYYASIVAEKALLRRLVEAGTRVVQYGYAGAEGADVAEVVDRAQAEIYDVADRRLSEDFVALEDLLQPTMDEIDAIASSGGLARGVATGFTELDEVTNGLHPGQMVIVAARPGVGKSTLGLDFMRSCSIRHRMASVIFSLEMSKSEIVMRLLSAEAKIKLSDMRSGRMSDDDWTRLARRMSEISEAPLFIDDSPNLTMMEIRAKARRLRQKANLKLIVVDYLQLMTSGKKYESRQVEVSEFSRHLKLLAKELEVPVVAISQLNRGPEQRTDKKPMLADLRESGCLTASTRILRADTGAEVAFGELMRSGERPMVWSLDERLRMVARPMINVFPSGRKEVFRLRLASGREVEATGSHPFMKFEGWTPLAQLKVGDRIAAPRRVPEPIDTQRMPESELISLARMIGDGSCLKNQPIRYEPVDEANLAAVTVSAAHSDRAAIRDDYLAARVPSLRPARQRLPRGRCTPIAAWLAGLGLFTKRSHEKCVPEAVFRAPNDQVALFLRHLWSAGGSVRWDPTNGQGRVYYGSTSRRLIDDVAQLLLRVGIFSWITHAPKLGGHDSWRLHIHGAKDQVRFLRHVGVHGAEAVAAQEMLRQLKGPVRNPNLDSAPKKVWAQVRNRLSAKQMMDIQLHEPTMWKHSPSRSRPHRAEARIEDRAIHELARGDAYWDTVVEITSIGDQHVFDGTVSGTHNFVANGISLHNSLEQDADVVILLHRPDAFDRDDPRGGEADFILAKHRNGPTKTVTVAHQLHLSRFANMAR

Protein RecA = target: T5, Protein RecA (Mycobacterium tuberculosis, UniProt P9WHJ3); test: Fluorescence Cell-Free Homogeneous Dose Retest to Identify Inhibitors of RecA-Intein Splicing Activity. [Related pubchem assays (depositor defined):AID2097, AID2223, AID489010, AID492950]; type: functional
T5 sequence (P9WHJ3 whole entry): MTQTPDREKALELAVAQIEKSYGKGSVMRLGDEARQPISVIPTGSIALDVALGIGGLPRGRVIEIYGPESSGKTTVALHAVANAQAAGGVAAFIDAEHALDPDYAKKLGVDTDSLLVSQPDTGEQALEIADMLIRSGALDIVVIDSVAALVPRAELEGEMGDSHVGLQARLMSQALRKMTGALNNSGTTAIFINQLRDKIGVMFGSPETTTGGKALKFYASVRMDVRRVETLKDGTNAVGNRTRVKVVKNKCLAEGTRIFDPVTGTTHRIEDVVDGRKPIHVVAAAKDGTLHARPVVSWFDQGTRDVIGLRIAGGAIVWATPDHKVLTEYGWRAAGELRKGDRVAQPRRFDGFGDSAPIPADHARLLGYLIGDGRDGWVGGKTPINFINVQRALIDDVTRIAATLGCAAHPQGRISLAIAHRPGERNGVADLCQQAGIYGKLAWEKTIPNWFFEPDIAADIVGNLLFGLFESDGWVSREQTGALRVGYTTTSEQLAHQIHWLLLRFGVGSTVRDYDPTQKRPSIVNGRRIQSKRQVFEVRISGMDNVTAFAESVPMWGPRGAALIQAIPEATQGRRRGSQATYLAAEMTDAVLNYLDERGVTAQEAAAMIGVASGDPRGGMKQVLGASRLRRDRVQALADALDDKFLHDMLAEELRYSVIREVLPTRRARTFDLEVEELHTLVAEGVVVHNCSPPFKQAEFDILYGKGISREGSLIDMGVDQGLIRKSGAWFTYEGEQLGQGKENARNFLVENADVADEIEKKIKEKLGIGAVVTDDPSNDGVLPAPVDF

[4] = target: T6, Carboxy-terminal domain RNA polymerase II polypeptide A small phosphatase 1 (Homo sapiens, UniProt Q9GZU7); test: inhibitors of CTDSP1, concentration-response testing, biochemical assay, absorbance-based, actives from ultra-high-throughput screening (AID 540297); type: functional
T6 sequence (Q9GZU7 whole entry): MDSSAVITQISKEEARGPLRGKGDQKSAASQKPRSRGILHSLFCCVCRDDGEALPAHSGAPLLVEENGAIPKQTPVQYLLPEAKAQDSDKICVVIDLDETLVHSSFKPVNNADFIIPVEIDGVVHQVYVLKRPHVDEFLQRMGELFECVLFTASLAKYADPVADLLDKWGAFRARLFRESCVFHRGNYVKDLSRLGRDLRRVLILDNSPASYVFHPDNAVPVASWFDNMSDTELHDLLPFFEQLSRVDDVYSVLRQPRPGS

[5] = target: T7, Tyrosine-protein phosphatase non-receptor type 5 (Homo sapiens, UniProt P54829); test: STEP phosphatase inhibitors, confirmation, biochemical, fluorescence intensity, uHTS hits (AID 602372); type: functional; conditions: read-out: IC50_Mean
T7 sequence (P54829 whole entry): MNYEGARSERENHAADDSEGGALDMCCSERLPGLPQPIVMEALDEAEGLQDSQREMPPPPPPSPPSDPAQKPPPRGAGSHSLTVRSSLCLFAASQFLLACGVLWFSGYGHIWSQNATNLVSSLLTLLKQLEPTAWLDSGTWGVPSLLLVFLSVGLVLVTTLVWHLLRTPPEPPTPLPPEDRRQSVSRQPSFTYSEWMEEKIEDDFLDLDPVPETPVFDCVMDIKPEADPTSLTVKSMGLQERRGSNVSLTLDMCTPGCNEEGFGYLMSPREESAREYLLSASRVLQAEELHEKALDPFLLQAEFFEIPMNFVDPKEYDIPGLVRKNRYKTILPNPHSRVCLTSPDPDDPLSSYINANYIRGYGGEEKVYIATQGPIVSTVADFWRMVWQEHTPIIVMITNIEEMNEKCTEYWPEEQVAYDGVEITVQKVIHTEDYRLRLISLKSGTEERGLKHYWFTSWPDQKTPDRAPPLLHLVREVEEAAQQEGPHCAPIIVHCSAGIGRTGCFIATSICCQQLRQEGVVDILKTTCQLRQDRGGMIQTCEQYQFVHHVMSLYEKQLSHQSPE

[6] = target: T8, Tyrosine-protein phosphatase non-receptor type 11 (Homo sapiens, UniProt Q06124); test: SHP2 phosphatase inhibition, dose response, selectivity assay for STEP inhibitor project, biochemical (AID 602367); type: functional; conditions: read-out: IC50_Mean
T8 sequence (Q06124 whole entry): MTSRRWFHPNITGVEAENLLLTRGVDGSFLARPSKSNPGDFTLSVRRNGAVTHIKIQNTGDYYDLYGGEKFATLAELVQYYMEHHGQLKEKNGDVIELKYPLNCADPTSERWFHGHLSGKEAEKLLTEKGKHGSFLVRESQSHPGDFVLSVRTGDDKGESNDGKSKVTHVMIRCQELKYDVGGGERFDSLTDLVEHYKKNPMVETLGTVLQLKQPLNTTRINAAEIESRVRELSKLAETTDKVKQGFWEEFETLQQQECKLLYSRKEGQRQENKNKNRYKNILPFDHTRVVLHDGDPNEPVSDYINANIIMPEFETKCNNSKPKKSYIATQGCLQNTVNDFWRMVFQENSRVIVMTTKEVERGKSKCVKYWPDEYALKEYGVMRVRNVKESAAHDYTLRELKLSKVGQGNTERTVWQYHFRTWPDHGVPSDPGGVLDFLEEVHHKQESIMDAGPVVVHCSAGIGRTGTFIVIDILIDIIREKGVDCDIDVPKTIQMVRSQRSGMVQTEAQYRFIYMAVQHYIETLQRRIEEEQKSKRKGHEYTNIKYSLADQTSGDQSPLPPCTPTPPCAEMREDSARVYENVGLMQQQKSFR

[7] = target: Dual specificity protein phosphatase 3 (Homo sapiens, UniProt P51452); test: VHR phosphatase inhibition, dose response, selectivity assay for STEP inhibitor project, biochemical (AID 602374); type: functional; conditions: read-out: IC50_Mean
Dual specificity protein phosphatase 3, sequence (P51452 whole entry): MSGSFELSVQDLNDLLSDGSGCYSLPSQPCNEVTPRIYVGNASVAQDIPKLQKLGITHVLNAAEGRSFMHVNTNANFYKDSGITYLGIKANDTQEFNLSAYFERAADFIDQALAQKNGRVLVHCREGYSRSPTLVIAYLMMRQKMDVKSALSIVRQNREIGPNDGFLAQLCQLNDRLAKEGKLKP

With COc1ccc(NC2=C(NCCO)C(=O)c3ccccc3C2=O)cc1 the IC50 [1] was 88.7 µM (inactive), the IC50 [2] was 29.4 µM (active) and the AC50 (Caspase-6) was 6.05 µM (active). For the same compound, the AC50 [3] was 31.4 µM (active) and the EC50 (Protein RecA) was 21.9 µM (active).
With Cc1c(CC(=O)NCCCCCC(=O)O)c(=O)oc2c(C)c3oc4c(c3cc12)CCCC4 the IC50 [4] was 4.72 µM (active), the IC50 [5] was 36.4 µM (inactive) and the IC50 [6] was 5.36 µM (active). The IC50 [7] was 3.9 µM (active).
